From patent US12029715B2, “Precursor compounds for providing retinoids of the vitamin A5 pathway and uses thereof” (UNIVERSITY OF DEBRECEN, priority 2015, dated 2024)
“Also recorded” adds a separate entry of the source.

Tests used:
hRXRα LBD [1] = target: T1, hRXRα LBD (Homo sapiens, UniProt P19793); assay: Fluorescence quenching assay, binding to RXRα LBD
T1 sequence (P19793 223-462): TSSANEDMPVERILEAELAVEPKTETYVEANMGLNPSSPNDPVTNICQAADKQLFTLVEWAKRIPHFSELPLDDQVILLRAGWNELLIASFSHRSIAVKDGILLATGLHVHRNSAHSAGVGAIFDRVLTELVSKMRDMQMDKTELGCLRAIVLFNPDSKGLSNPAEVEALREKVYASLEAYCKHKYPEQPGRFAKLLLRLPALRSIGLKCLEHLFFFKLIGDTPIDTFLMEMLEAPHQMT
Method: Quenching of tryptophan fluorescence was monitored at 10° C. using 5 nm of excitation and 5 nm of emission slit-width.

[2] = tested on: human oligodendrocytes cell cultures; assay: Metabolic conversion in human oligodendrocytes cell culture (HPLC-MS); assay type: in vitro ADME; conditions: for 9CDHRA levels in cells after treatment (metabolism / accumulation): 10^−6M, n=3
Procedure, shortened: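 Cultured human oligodendrocytes at 80% confluency were treated with each retinoid or carotenoid at 10^−6 M for 18 h, with ethanol vehicle as control. Harvested cells were analysed by HPLC-MS for 9CDHRA levels, n=3 with standard deviation.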

[3] = Mouse oral supplementation, retinoid levels in serum, brain and liver (LC-MS); assay type: in vivo; conditions: mice, per os 40 mg/kg, 11 h after treatment
Method: For metabolic analyses ATROL, 9CDHROL, 9CDHBC and control solutions were prepared as described above. Single per os application of the dose of 40 mg/kg of each substance was used to treat mice in the evening and samples were collected 11 h later in the light protected conditions, weighted, frozen in liquid nitrogen and stored at −80° C. until analyses. Serum was prepared and immediately stored in brown vials at −80° C., till further analysis.
Accordingly, for sample preparation 100 mg of the material (if samples were under 100 mg, water was added up to the used standard weight: 100 mg) or 100 μl serum was diluted with a threefold volume of isopropanol, the tissues were minced by scissors, vortexed for 10 seconds, put in a ultrasonic bath for 5 minutes, shaken for 6 minutes and centrifuged at 13000 rpm in a Heraeus BIOFUGE Fresco at +4° C. […] The dried extracts were resuspended with 30 μl of methanol—MTBE (50-50) and transferred into the autosampler and 10 μl subsequently analysed.
Mouse brain samples were prepared according to the procedure described above. Briefly, after single per os application of the dose of 40 mg/kg of 9CDHROL (or other cited substances) in the evening mice were sacrificed after 11 hours and tissues samples including brain were dissected under light-protection conditions, weighted, frozen in liquid nitrogen and stored at −80° C. until analyses. Serum was prepared and immediately stored in brown vials at −80° C., till further analysis.
For mouse supplementation experiments we treated n=6 mice per os with 40 mg/kg bw 9CDHROL and 11 h after the treatment the mice were killed and blood, brain and liver was taken. After centrifugation of the drawn blood, serum was obtained.

hRXRα LBD [4] = target: T1, hRXRα LBD; assay: ESI-MS in non-denaturing conditions, binding to RXR LBD; set-up: cDNAs encoding hRXRα LBD (223-462); His-tag (N); made in house; conditions: titration monitored by ESI-MS
Method: cDNAs encoding hRXRα LBD (223-462), hRARα LBD (153-421), hRARBβ LBD (169-414) and hRARγ LBD (178-423) were cloned into pET28b vector to generate N-terminal Histag fusion proteins. Purification was carried out as previously described [Lippert W P et al. 2009, Osz J, et al. 2012], including a metal affinity chromatography and a gel filtration. For details of sample preparation and ESI-MS analyses see below.
cDNAs encoding hRXRαLBD (223-462), hRARαLBD (153-421), hRARβLBD (169-414) and hRARγ LBD (178-423) were cloned into pET28b vector to generate N-terminal His-tag fusion proteins. Purification was carried out as previously described [Lippert W P et al. 2009, Osz J, et al. 2012], including a metal affinity chromatography and a gel filtration. Prior to ESI-MS analysis, samples were desalted on Zeba Spin desalting columns (Pierce) in 150 mM ammonium acetate (pH 8.0). ESI-MS measurements were performed on an electrospray time-of-flight mass spectrometer (MicrOTOF, Bruker Daltonics). Purity and homogeneity of the proteins were verified by mass spectrometry in denaturing conditions (samples were diluted at 2 pmol/μl in a 1:1 water-acetonitrile mixture (v/v) acidified with 1% formic acid). The mass measurements of the noncovalent complexes were performed in ammonium acetate (200 mM; pH 8.0). Samples were diluted to 8 pmol/ml in the previous buffer and continuously infused into the ESI ion source at a flow rate of […] through a Harvard syringe pump (Harvard Apparatus model 11). A careful optimization of the interface parameters was performed to obtain the best sensitivity and spectrum quality without affecting the noncovalent complexes stability. In particular, the capillary exit (CE) ranged from 60 to 150 V with a vacuum interface pressure of 2.3 mbar and was set to 80 V. For ligand-interaction analysis, ligands were added to the proteins in a 5-fold molar excess.

[5] = tested on: Rbp1−/−, Rxrγ−/− and WT mice; assay: Forced swim test after acute treatment; assay type: in vivo, mouse; conditions: for immobility (despair) in the forced swim test: acute i.p. treatment 5-6 h before the test
Method: (§1) The forced swim paradigm was carried out between 1 pm and 4 pm in a 3-litre glass beaker half-filled with water at 22-23° C. (the water depth was 17 cm). All mice were tested only once in this task. To this end, each mouse was lowered gently into the water and the time of immobility was scored during a 6-minute testing period. The mouse was judged immobile when it floated in an upright position and made only small movements to keep its head above the water. After 6 min, the mouse was taken out of the water, left to dry under a red light lamp and returned to its home cage. The immobility scores of each animal were used as an index of despair behavior.
(§2) Vehicle treatments consisted of 3% ethanol and 3% DMSO solution in sunflower oil. Treatments were administered by intraperitoneal injections at volume/weight ratio 3 ml/kg between 8-10 am and 5-6 h before the test as previously validated (Wietrzych-Schindler M, 2011).
as §1, with “paradigm (Dalvi and Lucki, 1999)” for “paradigm”, “2-litre” for “3-litre”

Rbp1−/− and Rxrγ−/− mice = assay: Y-maze spontaneous alternation; assay type: in vivo, mouse; conditions: 5-6 hours prior to testing
Method: The Y-maze apparatus and the procedure were as previously described (Wietrzych et al., 2005). Briefly, each mouse was placed at the end of one arm and allowed to explore freely the apparatus for 5 min, with the experimenter out of the animal's sight. Spontaneous alternation performance (SAP) was assessed visually by scoring the pattern of entries into each arm and expressed as a percentage of total number of entries, discounting the first two visits. Total entries were scored as an index of ambulatory activity in the Y-maze, but none of tested mice had to be excluded due to low locomotor performance (score below 9 entries).
as §2

CC(C=CC1=C(C)CCCC1(C)C)=CC=CC(C)CC(=O)O (stereo not drawn) [9CDHRA, 9-cis-13,14-dihydroretinoic acid]
Kd (hRXRα LBD [1]): 90 ± 20 nM
9CDHRA levels in cells after treatment (metabolism / accumulation) [2]: strong accumulation

CC1=C(/C=C/C(C)=C\C=C\C(C)CCO)C(C)(C)CCC1 (stereo not drawn) [9CDHROL, 9-cis-13,14-dihydroretinol]
9CDHRA levels in serum, brain and liver after treatment (conversion to 9CDHRA) [3]: strong increase; also recorded: strongly increased; also recorded: best conversion
9CDHROL levels in serum, brain and liver after treatment [3]: strongly increased; also recorded: strong and significantly increased levels
9CDHRA levels in cells after treatment (metabolism / accumulation) [2]: moderately but significantly metabolized
precursor substrate of 9CDHROL ([2]; in vitro): excellent precursor substrates

CC1=C(/C=C/C(C)=C\C=C\[C@H](C)CC(=O)O)C(C)(C)CCC1 [(R)-9CDHRA, (9Z,13R)-13,14-Dihydroretinoic Acid]
Kd (hRXRα LBD [1]): 90 ± 20 nM
higher affinity than (S)-9CDHRA for RXR LBD (peak amplitude) (hRXRα LBD [4]): about 65%
lower affinity than 9CRA for RXR LBD (peak amplitude) (hRXRα LBD [4]): approximately 30%
immobility (despair) in the forced swim test ([5]; Rbp1−/− mice): reduce despair behavior; also recorded: reduced in dose dependent manner immobility
dose attaining maximal effect on immobility in the forced swim test ([5]; Rbp1−/− mice, acute treatment): 1 mg/kg
immobility time in the forced swim test ([5]; Rxrγ−/− mice, 2 mg treatment): 120 ± 25 s

CC1(C)CCC(C)(C)c2cc(C3(c4ccc(C(=O)O)cc4)OCCO3)ccc21 [UVI2108, reference compound]
immobility (despair) in the forced swim test ([5]; Rbp1−/− mice): reduced significantly immobility time
working memory in spontaneous alternation in the Y-maze (Rbp1−/− and Rxrγ−/− mice; Rbp1−/− mice, ATRA 5 mg/kg, UVI2108 1 mg/kg, MA 5 mg/kg, DHA 1 mg/kg, TTNPB 5 mg/kg): normalised; also recorded: pro-mnemonic effects
working memory in spontaneous alternation in the Y-maze (Rbp1−/− and Rxrγ−/− mice; Rxrγ−/− mice, same doses): not
